In patent publication US9133115B2 (ACHILLION PHARMACEUTICALS, INC., priority 2008, dated 2015):

System: HCV replicon
Test: HCV replicon replication assay (NPT ELISA) in Huh-7 replicon-containing cells
Format: cell-based
Settings: Hepatitis C virus, 72 h; HCV replicon in Huh-7 cells, three days incubation; read-out: EC50
Method in brief: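 Replication was scored by capture ELISA of neomycin phosphotransferase, whose level tracks replicon replication, after graded compound treatment. The cells were Huh-7 harbouring an HCV-IRES/neo/EMCV-IRES/NS3–NS5B/3′-NTR replicon, plated at 6000-7500 cells/well and dosed 24 h later at 60-70% confluence; interferon alpha was the positive control.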

SMILES | EC50
C=C[C@@H]1C[C@]1(NC(=O)[C@@H]1C[C@@H](Oc2cc(-c3ccccc3)cc3cc(OC)ccc23)CN1C(=O)[C@@H](CC(=O)N1CCCCC1)C(C)(C)C)C(=O)NS(=O)(=O)C1CC1 [Compound 233, (2S,4R)-1-((S)-2-tert-butyl-4-oxo-4-(piperidin-1-yl)butanoyl)-N-((1R)-1-(cyclopropyl-sulfonylcarbamoyl)-2-vinylcyclopropyl)-4-(6-methoxy-3-phenylnaphthalen-1-yloxy)pyrrolidine-2-carboxamide] | < 1000 nM
C=C[C@@H]1C[C@]1(NC(=O)[C@@H]1C[C@@H](Oc2cc(-c3ccccc3)nc3c4c(ccc23)CCC4)CN1C(=O)[C@@H](CC(=O)N1CCCCC1)C(C)(C)C)C(=O)NS(=O)(=O)C1CC1 [Compound 235, (2S,4R)-l-((S)-2-tert-butyl-4-oxo-4-(piperidin-l-yl)butanoyl)-N-((2S)-l-(cyclopropyl-sulfonylcarbamoyl)-2-vinylcyclopropyl)-4-(2-phenyl-8,9-dihydro-7H-cyclo-penta[h]quinolin-4-yloxy)pyrrolidine-2-carboxamide] | < 1000 nM
C=C[C@@H]1C[C@]1(NC(=O)[C@@H]1C[C@@H](Oc2cc(-c3ccccn3)nc3c4c(ccc23)CCC4)CN1C(=O)[C@@H](CC(=O)N1CCCC(F)(F)C1)C(C)(C)C)C(=O)NS(=O)(=O)C1CC1 [Compound 236, (2S,4R)-1-((S)-2-tert-butyl-4-(3,3-difluoropiperidin-1-yl)-4-oxobutanoyl)-N-((2S)-1-(cyclopropyl-sulfonylcarbamoyl)-2-vinylcyclopropyl)-4-(2-(pyridin-2-yl)-8,9-dihydro-7H-cyclopenta[h]quino-lin-4-yloxy)pyrrolidine-2-carboxamide] | < 1000 nM
C=C[C@@H]1C[C@]1(NC(=O)[C@@H]1C[C@@H](Oc2cc(-c3ccccn3)nc3c4c(ccc23)CCC4)CN1C(=O)[C@@H](CC(=O)N1CCC(C(F)(F)F)CC1)C(C)(C)C)C(=O)NS(=O)(=O)C1CC1 [Compound 237, (2S,4R)-1-((S)-2-tert-butyl-4-oxo-4-(4-(trifluoro-methyl)piperidin-1-yl)butanoyl)-N-((2S)-1-(cyclopropyl-sulfonylcarbamoyl)-2-vinylcyclopropyl)-4-(2-(pyridin-2-yl)-8,9-dihydro-7H-cyclopenta[h]quino-lin-4-yloxy)pyrrolidine-2-carboxamide] | < 1000 nM
C=C[C@@H]1C[C@]1(NC(=O)[C@@H]1C[C@@H](Oc2cc(-c3csc(NC(C)C)n3)nc3c(C)c(OC)ccc23)CN1C(=O)[C@@H](CC(=O)N1CCC(C(F)(F)F)CC1)C(C)(C)C)C(=O)NS(=O)(=O)C1CC1 [Compound 238, (2S,4R)-1-((S)-2-tert-butyl-4-oxo-4-(4-(trifluoro-methyl)piperidin-1-yl)butanoyl)-N-((2S)-1-(cyclopropyl-sulfonylcarbamoyl)-2-vinylcyclopropyl)-4-(2-(2-(isopropyl-amino)thiazol-4-yl)-7-methoxy-8-methylquinolin-4-yloxy)pyrrolidine-2-carboxamide] | < 1000 nM
C=C[C@@H]1C[C@]1(NC(=O)[C@@H]1C[C@@H](Oc2cc(-c3ccccc3)nc3c(C)c(OC)ccc23)CN1C(=O)[C@@H](CC(=O)N1CCCCC1)C(C)(C)C)C(=O)NS(=O)(=O)C1CC1 [Compound 239] | < 1000 nM
C=C[C@@H]1C[C@]1(NC(=O)[C@@H]1C[C@@H](Oc2cc(-c3ccccc3)nc3c(C)c(OC)ccc23)CN1C(=O)[C@@H](CC(=O)N1CCC(C(F)(F)F)CC1)C(C)(C)C)C(=O)NS(=O)(=O)C1CC1 [Compound 240, (2S,4R)-1-((S)-2-tert-butyl-4-oxo-4-(4-(trifluoro-methyl)piperidin-1-yl)butanoyl)-N-((1R)-1-(cyclopropyl-sulfonylcarbamoyl)-2-vinylcyclopropyl)-4-(7-methoxy-8-methyl-2-phenylquinolin-4-yloxy)pyrrolidine-2-carboxamide] | < 1000 nM
C=C[C@@H]1C[C@]1(NC(=O)[C@@H]1C[C@@H](Oc2cc(-c3ccccc3)nc3c(C)c(OC)ccc23)CN1C(=O)[C@@H](CC(=O)N1CCCC(F)(F)C1)C(C)(C)C)C(=O)NS(=O)(=O)C1CC1 [Compound 241, (2S,4R)-1-((S)-2-tert-butyl-4-(3,3-difluoropiperidin-1-yl)-4-oxobutanoyl)-N-((2S)-1-(cyclopropyl-sulfonylcarbamoyl)-2-vinylcyclopropyl)-4-(7-methoxy-8-methyl-2-phenylquinolin-4-yloxy)pyrrolidine-2-carboxamide] | < 1000 nM
C=C[C@@H]1C[C@]1(NC(=O)[C@@H]1C[C@@H](Oc2cc(-c3ccccn3)nc3c4c(ccc23)CCC4)CN1C(=O)[C@@H](CC(=O)N1CCCCC1)C(C)(C)C)C(=O)NS(=O)(=O)C1CC1 [Compound 242, (2S,4R)-1-((S)-2-tert-butyl-4-oxo-4-(piperidin-1-yl)butanoyl)-N-((2S)-1-(cyclopropyl-sulfonylcarbamoyl)-2-vinylcyclopropyl)-4-(2-(pyridin-2-yl)-8,9-dihydro-7H-cyclopenta[h]quino-lin-4-yloxy)pyrrolidine-2-carboxamide] | < 1000 nM
C=C[C@@H]1C[C@]1(NC(=O)[C@@H]1C[C@@H](Oc2nc(-c3ccccn3)cc3c(Cl)c(OC)ccc23)CN1C(=O)[C@@H](CC(=O)N1CCCCC1)C(C)(C)C)C(=O)NS(=O)(=O)C1CC1 [Compound 243, (2S,4R)-1-((S)-2-tert-butyl-4-oxo-4-(piperidin-1-yl)butanoyl)-4-(5-chloro-6-methoxy-3-(pyridin-2-yl)isoquinolin-1-yloxy)-N-((2S)-1-(cyclopropyl-sulfonylcarbamoyl)-2-vinylcyclo-propyl)pyrrolidine-2-carboxamide] | < 1000 nM
C=C[C@@H]1C[C@]1(NC(=O)[C@@H]1C[C@@H](Oc2nc(-c3ccccn3)cc3c(Cl)c(OC)ccc23)CN1C(=O)[C@@H](CC(=O)N1CCCC(F)(F)C1)C(C)(C)C)C(=O)NS(=O)(=O)C1CC1 [Compound 244, (2S,4R)-1-((S)-2-tert-butyl-4-(3,3-difluoropiperidin-1-yl)-4-oxobutanoyl)-4-(5-chloro-6-methoxy-3-(pyridin-2-yl)isoquinolin-1-yloxy)-N-((2S)-1-(cyclopropyl-sulfonylcarbamoyl)-2-vinylcyclo-propyl)pyrrolidine-2-carboxamide] | < 1000 nM
C=C[C@@H]1C[C@]1(NC(=O)[C@@H]1C[C@@H](Oc2cc(-c3ccccn3)nc3c(C)c(OC)ccc23)CN1C(=O)[C@@H](CC(=O)N1CCCC(F)(F)C1)C(C)(C)C)C(=O)NS(=O)(=O)C1CC1 [Compound 246, (2S,4R)-1-((S)-2-tert-butyl-4-(3,3-difluoropiperidin-1-yl)-4-oxobutanoyl)-N-((2S)-1-(cyclopropyl-sulfonylcarbamoyl)-2-vinylcyclopropyl)-4-(7-methoxy-8-methyl-2-(pyridin-2-yl)quinolin-4-yloxy)pyrrolidine-2-carboxamide] | < 1000 nM
C=C[C@@H]1C[C@]1(NC(=O)[C@@H]1C[C@@H](Oc2nccc3c(Cl)c(OC)ccc23)CN1C(=O)[C@@H](CC(=O)N1CCCC(F)(F)C1)C(C)(C)C)C(=O)NS(=O)(=O)C1CC1 [Compound 247, (2S,4R)-1-((S)-2-tert-butyl-4-(3,3-difluoropiperidin-1-yl)-4-oxobutanoyl)-4-(5-chloro-6-methoxyisoquinolin-1-yloxy)-N-((2S)-1-(cyclopropyl-sulfonylcarbamoyl)-2-vinylcyclo-propyl)pyrrolidine-2-carboxamide] | < 1000 nM
